Measurements taken from ChEMBL document CHEMBL1201862, “PubChem BioAssay data set” (2004).
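96-well plates; 48 h exposure; 5 concentrations. Endpoints by linear interpolation between flanking doses. Not reached: highest tested concentration assigned. GI50 is the concentration that inhibits growth by half.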 Activity calls are given as the source filed them. Rule as the data show it: active = GI50 up to about 1.1 µM and inactive = higher.

Assays:
Assay in all cases: NCI-60 cell line screen, 48 h
NCI-H522 = test system: NCI-H522
RPMI-8226 = test system: RPMI-8226
OVCAR-4 = test system: OVCAR-4
HCT-116 = test system: HCT-116
UO-31 = test system: UO-31
HCC 2998 = test system: HCC 2998
SK-MEL-28 = test system: SK-MEL-28
HOP-92 = test system: HOP-92
OVCAR-5 = test system: OVCAR-5
EKVX = test system: EKVX
MDA-MB-435 = test system: MDA-MB-435
A549 = test system: A549
NCI-H226 = test system: NCI-H226
MDA-MB-231 = test system: MDA-MB-231
UACC-257 = test system: UACC-257
SF-295 = test system: SF-295
RXF 393 = test system: RXF 393
Malme-3M = test system: Malme-3M
MOLT-4 = test system: MOLT-4
DU-145 = test system: DU-145

Row | SMILES | GI50 (NCI-H522) | GI50 (RPMI-8226) | GI50 (OVCAR-4) | GI50 (HCT-116) | GI50 (UO-31) | GI50 (HCC 2998) | GI50 (SK-MEL-28) | GI50 (HOP-92) | GI50 (OVCAR-5) | GI50 (EKVX) | GI50 (MDA-MB-435) | GI50 (A549) | GI50 (NCI-H226) | GI50 (MDA-MB-231) | GI50 (UACC-257) | GI50 (SF-295) | GI50 (RXF 393) | GI50 (Malme-3M) | GI50 (MOLT-4) | GI50 (DU-145)
1 | COC(=O)C(C(=O)C(=O)NC1Nc2ccc(C)cc2S1)c1nc2ccc(Cl)cc2nc1O (stereo not given) | > 100 µM (inactive) | > 100 µM (inactive) | 74 µM (inactive) | > 100 µM (inactive) | > 100 µM (inactive) | > 100 µM (inactive) | > 100 µM (inactive) | 82.4 µM (inactive) | > 100 µM (inactive) | 60.1 µM (inactive) | > 100 µM (inactive) | > 100 µM (inactive) | > 100 µM (inactive) | > 100 µM (inactive) | > 100 µM (inactive) | > 100 µM (inactive) | > 100 µM (inactive) | > 100 µM (inactive) |  | 
2 | COC(=O)C1CC2(c3ccccc3)C(=O)c3ccccc3N2O1 (stereo not given) | 15.5 µM (inactive) | 17.7 µM (inactive) | > 100 µM (inactive) | 46.9 µM (inactive) |  | > 100 µM (inactive) | 91.8 µM (inactive) | 49.5 µM (inactive) | > 100 µM (inactive) | > 100 µM (inactive) |  | > 100 µM (inactive) | > 100 µM (inactive) |  | > 100 µM (inactive) | > 100 µM (inactive) |  | > 100 µM (inactive) | 22.1 µM (inactive) | 
3 | CC1(C)OC(C(N)=O)=C(C(N)=O)O1 | > 100 µM (inactive) |  | > 100 µM (inactive) | > 100 µM (inactive) | > 100 µM (inactive) | > 100 µM (inactive) | > 100 µM (inactive) | > 100 µM (inactive) | > 100 µM (inactive) | > 100 µM (inactive) |  | > 100 µM (inactive) | > 100 µM (inactive) |  | > 100 µM (inactive) | > 100 µM (inactive) | > 100 µM (inactive) | > 100 µM (inactive) | > 100 µM (inactive) | 
4 | O=C1C(Cl)=C(OCCCl)C(=O)c2c(O)ccc(O)c21 |  | 0.74 µM (active) | 2.77 µM (inactive) | 0.755 µM (active) | 5.36 µM (inactive) | 18.5 µM (inactive) | 4.06 µM (inactive) | 1.57 µM (inactive) | 17.7 µM (inactive) | 18.6 µM (inactive) |  | 20 µM (inactive) | 17 µM (inactive) | 4.38 µM (inactive) | 2.59 µM (inactive) | 17.5 µM (inactive) | 6.44 µM (inactive) | 2.89 µM (inactive) | 0.212 µM (active) | 17.9 µM (inactive)
5 | CC12CCC3C(CCC4(O)C=CCCC34C=O)C1(O)CC(O)C2c1ccc(=O)oc1 (stereo not given) | < 0.05 µM (active) | 0.0697 µM (active) | 0.0611 µM (active) | 0.0573 µM (active) | 0.0685 µM (active) | 0.117 µM (active) | 0.134 µM (active) | 0.105 µM (active) | 0.191 µM (active) | 0.0564 µM (active) |  | 0.0504 µM (active) | 0.148 µM (active) |  | 0.104 µM (active) | 0.0551 µM (active) | < 0.05 µM (active) | 0.0521 µM (active) | < 0.05 µM (active) | 
6 | CC(C)=CCc1c(O)ccc2c1OC1c3ccc(O)c(CC=C(C)C)c3OCC21 (stereo not given) | 11.3 µM (inactive) | 3.28 µM (inactive) | 11.2 µM (inactive) | 5.12 µM (inactive) | 11.7 µM (inactive) | 13.2 µM (inactive) | 13.4 µM (inactive) | > 100 µM (inactive) | 13.9 µM (inactive) | 5.62 µM (inactive) |  | 7.94 µM (inactive) | 14 µM (inactive) |  | 13.8 µM (inactive) | 11.6 µM (inactive) | 8.09 µM (inactive) | 17 µM (inactive) | 3.14 µM (inactive) | 
7 | c1c(N2CCOCC2)s[s+]c1N1CCOCC1 | > 100 µM (inactive) | > 100 µM (inactive) | > 100 µM (inactive) | > 100 µM (inactive) | > 100 µM (inactive) | > 100 µM (inactive) | > 100 µM (inactive) | > 100 µM (inactive) | > 100 µM (inactive) | > 100 µM (inactive) |  | > 100 µM (inactive) | 13.3 µM (inactive) |  | > 100 µM (inactive) | > 100 µM (inactive) | > 100 µM (inactive) | > 100 µM (inactive) | > 100 µM (inactive) | 
8 | COc1ccc(C(=O)C(C(=O)C(=O)NCCCNC(=O)C(=O)C(C(=O)c2ccc(OC)cc2)c2ccc(OC)cc2)c2ccc(OC)cc2)cc1 (stereo not given) | > 100 µM (inactive) | > 100 µM (inactive) | > 100 µM (inactive) | > 100 µM (inactive) | > 100 µM (inactive) | > 100 µM (inactive) | > 100 µM (inactive) | > 100 µM (inactive) | > 100 µM (inactive) | > 100 µM (inactive) |  | > 100 µM (inactive) | > 100 µM (inactive) |  | > 100 µM (inactive) | > 100 µM (inactive) |  | > 100 µM (inactive) | > 100 µM (inactive) | 
9 | CCOC(=O)C1S/C(=N\c2ccc(C)c(C)c2)N=C1C (stereo not given) | > 100 µM (inactive) | 85.7 µM (inactive) | > 100 µM (inactive) |  | > 100 µM (inactive) | > 100 µM (inactive) | > 100 µM (inactive) | > 100 µM (inactive) | > 100 µM (inactive) | > 100 µM (inactive) |  | > 100 µM (inactive) | > 100 µM (inactive) |  | > 100 µM (inactive) | > 100 µM (inactive) |  | > 100 µM (inactive) | > 100 µM (inactive) | 
10 | C/C=C1/C(=Cc2[nH]c(C=c3[nH]/c(=C/C4=NC(=O)C(CC)=C4C)c(C)c3CCC(=O)O)c(CCC(=O)O)c2C)NC(=O)C1C (stereo not given) | 6.19 µM (inactive) |  | 11.1 µM (inactive) | 2.13 µM (inactive) | 8.24 µM (inactive) | 11.4 µM (inactive) | 47.6 µM (inactive) | 0.0173 µM (active) | 8.49 µM (inactive) | 30.6 µM (inactive) |  | 10.5 µM (inactive) | 2.59 µM (inactive) |  | 11 µM (inactive) | 6.65 µM (inactive) | > 50 µM (inactive) | 13.6 µM (inactive) | 1.95 µM (inactive) | 
11 | O=C(O)CCC(NC(=O)c1ccc(Nc2cnc3cc(C(F)(F)F)ccc3n2)cc1)C(=O)O (stereo not given) | > 100 µM (inactive) | > 100 µM (inactive) | > 100 µM (inactive) | > 100 µM (inactive) | > 100 µM (inactive) | > 100 µM (inactive) | > 100 µM (inactive) | > 100 µM (inactive) | > 100 µM (inactive) | > 100 µM (inactive) |  | > 100 µM (inactive) | > 100 µM (inactive) |  | > 100 µM (inactive) | > 100 µM (inactive) | > 100 µM (inactive) | > 100 µM (inactive) | > 100 µM (inactive) | 
12 | Cc1c(C2=NN=C(/N=N/c3c(O)cccc3O)/C2=C/c2ccccc2)c(=O)n(-c2ccccc2)n1C | > 100 µM (inactive) | > 100 µM (inactive) | > 100 µM (inactive) | > 100 µM (inactive) | > 100 µM (inactive) | > 100 µM (inactive) | > 100 µM (inactive) | > 100 µM (inactive) | > 100 µM (inactive) | > 100 µM (inactive) |  | > 100 µM (inactive) | > 100 µM (inactive) |  | > 100 µM (inactive) | > 100 µM (inactive) | > 100 µM (inactive) | > 100 µM (inactive) | > 100 µM (inactive) | 
13 | COC(=O)C1=C(C(=O)OC)SC(=C(/N=N/c2ccccc2)c2ccccc2)S1 | 83.6 µM (inactive) | > 100 µM (inactive) | > 100 µM (inactive) | > 100 µM (inactive) | > 100 µM (inactive) | > 100 µM (inactive) | > 100 µM (inactive) | > 100 µM (inactive) | > 100 µM (inactive) | > 100 µM (inactive) |  | > 100 µM (inactive) | > 100 µM (inactive) |  | > 100 µM (inactive) | > 100 µM (inactive) |  | > 100 µM (inactive) | > 100 µM (inactive) | 
14 | COC(=O)[C@]1(C)CCCC2(C)C1CC[C@H]1C=C(C)[C@H]3CCC12C3 (stereo not given in full) | 45 µM (inactive) | > 100 µM (inactive) | > 100 µM (inactive) | 40.3 µM (inactive) | > 100 µM (inactive) | > 100 µM (inactive) | > 100 µM (inactive) | > 100 µM (inactive) | > 100 µM (inactive) |  |  | > 100 µM (inactive) | > 100 µM (inactive) |  | 37.5 µM (inactive) | > 100 µM (inactive) | 55.3 µM (inactive) | > 100 µM (inactive) | > 100 µM (inactive) | 
15 | CCOC(=O)Nc1ccc(S(=O)(=O)OC)cc1.CCOC(=O)Nc1ccc(S(=O)(=O)OC)cc1.NC(=O)NCCO | > 50 µM (inactive) | 17.1 µM (inactive) | 41.9 µM (inactive) | 21.3 µM (inactive) | > 50 µM (inactive) | > 50 µM (inactive) | > 50 µM (inactive) | > 50 µM (inactive) | > 50 µM (inactive) | > 50 µM (inactive) |  | > 50 µM (inactive) | > 50 µM (inactive) |  | 29.6 µM (inactive) | > 50 µM (inactive) | > 50 µM (inactive) | > 50 µM (inactive) | > 50 µM (inactive) | 
16 | CC1(C)S[C@@H]2[C@H](NC(=O)CCC[C@@H](N)C(=O)O)C(=O)N2[C@H]1C(=O)O [ADICILLIN] | > 50 µM (inactive) | > 50 µM (inactive) | > 50 µM (inactive) | > 50 µM (inactive) | > 50 µM (inactive) | > 50 µM (inactive) | > 50 µM (inactive) | > 50 µM (inactive) | 23.3 µM (inactive) | > 50 µM (inactive) |  | > 50 µM (inactive) | > 50 µM (inactive) |  | > 50 µM (inactive) | > 50 µM (inactive) | > 50 µM (inactive) | > 50 µM (inactive) | > 50 µM (inactive) | 
